Experimental data reported in EPA's ToxValDB 9.5 (doi:10.2903/j.efsa.2015.4001).

How the values were obtained:
[1] = tested on: Mus musculus; conditions: organ weight
[2] = tested on: Anas platyrhynchos; conditions: reproductive
[3] = tested on: Apis mellifera; conditions: acute, duration: 48 hours, mortality
[4] = tested on: Colinus virginianus; conditions: acute; oral
[5] = tested on: Rattus norvegicus
[6] = tested on: Oryctolagus sp.; conditions: developmental; development
[7] = tested on: Tagia sp.

SMILES: CCOC(=O)COc1cc(-c2nn(C)c(OC(F)F)c2Cl)c(F)cc1Cl [Pyraflufen-ethyl]
- NOAEL ([1]; chronic, duration: 18 months): 20 mg/kg-day
- NOAEL ([1]; subchronic, duration: 90 days, oral): 20 mg/kg-day
- NOAEL [2]: 50 mg/kg-day
- LD50 ([3]; dermal): > 100 µg/piece
- LD50 ([3]; oral, unspecified): > 112 µg/piece
- LD50 [4]: > 2000 mg/kg-day
- LD50 ([5]; acute, oral, mortality): > 5000 mg/kg-day
- NOAEL ([5]; chronic, duration: 2 years, organ weight): 20 mg/kg-day
- NOAEL ([5]; reproduction developmental): 20 mg/kg-day
- NOAEL [6]: 20 mg/kg-day
- LC50 ([7]; acute, duration: 14 days, mortality): > 500 mg/kg
- NOEC ([7]; chronic/long-term): ≥ 250 mg/kg
